Assay results as given in ChEMBL document CHEMBL5052853, “Isoxazole derivatives targeting tacc3 as anticancer agents” (2021).
Calls of active or inactive are those of the source. The rule behind the calls is not given here.

Columns and labels:
[1] = Toxicity in mouse CT26 cells xenografted syngeneic immunocompetent Balb/c mouse assessed as effect on body weight at 25 to 50 mg/kg, po administered daily; format: organism-based; conditions: in vivo, dose 25-50 mg/kg
[2] = test system: JIMT-1; assay: Induction of apoptosis in human JIMT-1 cells at 200 nM assessed as change in cleaved PARP levels in presence of Mps1 inhibitor TC Mps1 and measured by Western blot analysis; format: functional, cell-based
[3] = Toxicity in human HCT-116 cells xenografted immunocompromised female nude mouse assessed as effect on body weight at 25 to 50 mg/kg, po administered daily; format: organism-based; conditions: in vivo, dose 25-50 mg/kg
[4] = test system: JIMT-1; assay: Antitumor activity in human JIMT-1 cells xenografted female nude mouse at 2 mg/kg, po administered every other day; format: functional, organism-based
[5] = Binding affinity to purified recombinant human TACC3 by isothermal titration calorimetry
[6] = Toxicity in female nude mouse assessed as body weight at 100 mg/kg, po after 4 days of administration; format: organism-based; conditions: in vivo, 96 h, time 4 day
[7] = test system: HCC1954; assay: Antiproliferative activity against human HCC1954 cells; format: functional, cell-based
[8] = Toxicity in female nude mouse assessed as body weight at 100 mg/kg, po after 1 day of administration; format: organism-based; conditions: in vivo, 24 h
[9] = test system: HCT-116; assay: Antitumor activity in human HCT-116 cells xenografted immunocompromised female nude mouse at 25 to 50 mg/kg, po administered daily; format: functional, organism-based; conditions: dose 25-50 mg/kg
[10] = test system: RT-4; assay: Antiproliferative activity against human RT-4 cells after 3 days by SRB assay; format: functional, cell-based; conditions: RT-4, 72 h
[11] = Toxicity in mouse EMT6 cells xenografted syngeneic Balb/c mouse assessed as animal survival rate measured by Kaplan-Meier plot analysis; conditions: in vivo
[12] = Toxicity in human JIMT-1 cells xenografted female nude mouse assessed as effect on body weight at 2 mg/kg, iv administered once every 2 weeks; format: organism-based; conditions: in vivo, 336 h
[13] = test system: 4T1; assay: Antitumor activity in mouse 4T1-Luc cells xenografted immunocompetent female mouse assessed as impairment of metastatic growth at 50 mg/kg, po administered every day; format: functional, organism-based
[14] = test system: MDA-MB-231; assay: Antiproliferative activity against human MDA-MB-231 cells; format: functional, cell-based
[15] = test system: JIMT-1; assay: Induction of apoptosis in human JIMT-1 cells assessed as increase in apoptotic cells at 500 nM measured by Annexin-V and PI staining method (reference value: 4.1 +/- 0.3 %); format: functional
[16] = Toxicity in female nude mouse assessed as body weight at 100 mg/kg, po after 5 days of administration; format: organism-based; conditions: in vivo, 120 h, time 5 day
[17] = Toxicity in female nude mouse assessed as body weight at 100 mg/kg, po after 3 days of administration; format: organism-based; conditions: in vivo, 72 h, time 3 day
[18] = Toxicity in female nude mouse assessed as body weight at 100 mg/kg, po after 6 days of administration; format: organism-based; conditions: in vivo, 144 h, time 6 day
[19] = test system: JIMT-1; assay: Induction of mitotic arrest in human JIMT-1 cells assessed as increased localization of spindle assembly checkpoint marker BuBR1 to chromosomes at 500 nM measured by immunofluorescence staining method; format: functional, cell-based
[20] = test system: CT26; assay: Antitumor activity in mouse CT26 cells xenografted syngeneic immunocompetent Balb/c mouse at 25 to 50 mg/kg, po administered daily; format: functional, organism-based; conditions: dose 25-50 mg/kg
[21] = test system: MCF-12A; assay: Antiproliferative activity against human MCF-12A cells; format: functional, cell-based
[22] = test system: CAL-51; assay: Antiproliferative activity against human CAL-51 cells; format: functional, cell-based
[23] = Toxicity in female nude mouse assessed as body weight at 100 mg/kg, po after 7 days of administration; format: organism-based; conditions: in vivo, 168 h, time 7 day
[24] = test system: JIMT-1; assay: Induction of DNA damage in human JIMT-1 cells at 200 nM assessed as change in p-H2AX levels in presence of Mps1 inhibitor TC Mps1 and measured by Western blot analysis; format: functional, cell-based
[25] = test system: JIMT-1; assay: Inhibition of colony formation in human JIMT-1 cells at 0.1 to 1 uM assessed as decrease in colony number incubated for 12 days by crystal violet staining based assay; format: functional, cell-based; conditions: dose 0.1-1 µM, time 12.0 day
[26] = Toxicity in female nude mouse assessed as body weight at 500 mg/kg, po administered once and measured after 1 day of administration; format: organism-based; conditions: in vivo, 24 h
[27] = test system: JIMT-1; assay: Induction of mitotic arrest in human JIMT-1 cells assessed as increase in aberrant spindle formation at 200 to 500 nM measured by DAPI staining method; format: functional, cell-based; conditions: dose 200-500 nM
[28] = Toxicity in female nude mouse assessed as body weight at 500 mg/kg, po administered once and measured after 3 days of administration; format: organism-based; conditions: in vivo, 72 h, time 3 day
[29] = Toxicity in female nude mouse assessed as organ toxicity at 500 mg/kg, po administered once for 1 to 3 days; format: organism-based; conditions: in vivo, time 1-3 day
[30] = test system: JIMT-1; assay: Induction of apoptosis in human JIMT-1 cells assessed as change in cleaved caspase-3 levels and measured by Western blot analysis; format: functional, cell-based; conditions: dose 0.1-5 µM
[31] = Toxicity in mouse EMt6 cells xenografted syngeneic Balb/c mouse assessed as effect on body weight; conditions: in vivo
[32] = Toxicity in human JIMT-1 cells xenografted female nude mouse assessed as effect on body weight at 25 mg/kg, po administered for 23 days; format: organism-based; conditions: in vivo, 552 h, time 23 day
[33] = test system: JIMT-1; assay: Antitumor activity in human JIMT-1 cells xenografted female immunodeficient nude mouse at 5 mg/kg, po administered every other day for 30 days; format: functional, organism-based; conditions: time 30.0 day
[34] = test system: JIMT-1; assay: Induction of mitotic arrest in human JIMT-1 cells assessed as change in p-histone H3 levels and measured by Western blot analysis; format: functional, cell-based; conditions: dose 0.1-5 µM
[35] = test system: JIMT-1; assay: Induction of DNA damage in human JIMT-1 cells assessed as change in p-H2AX levels and measured by Western blot analysis; format: functional, cell-based; conditions: dose 0.1-5 µM
[36] = test system: EMT6; assay: Antitumor activity in mouse EMT6 xenografted cells syngeneic Balb/c mouse
[37] = test system: RT-112; assay: Induction of mitotic arrest in human RT-112 cells assessed as decrease in ERK1/2 phosphorylation at 5 uM measured by western blot analysis; format: functional, cell-based
[38] = test system: JIMT-1; assay: Induction of mitotic arrest in human JIMT-1 cells assessed as increase in multipolar spindles formation at 200 to 500 nM; format: functional, cell-based; conditions: dose 200-500 nM
[39] = test system: JIMT-1; assay: Antitumor activity in human JIMT-1 cells xenografted female nude mouse at 2 mg/kg, iv administered once every 2 weeks; format: functional, organism-based
[40] = Kinetic solubility in sodium phosphate buffer at pH 7.4 at 25 degree C after 2 hrs; format: physicochemical; conditions: read-out: Kinetic_solubility
[41] = Plasma protein binding in human assessed as unbound fraction; format: ADME, cell-free
[42] = test system: JIMT-1; assay: Antitumor activity in human JIMT-1 cells xenografted female nude mouse at 25 mg/kg, po administered for 23 days; format: functional, organism-based; conditions: time 23.0 day
[43] = test system: JIMT-1; assay: Induction of mitotic arrest in human JIMT-1 cells at 200 nM assessed as change in p-histone H3 levels in presence of Mps1 inhibitor TC Mps1 and measured by Western blot analysis; format: functional, cell-based
[44] = test system: RT-112; assay: Antiproliferative activity against human RT-112 cells after 3 days by SRB assay; format: functional, cell-based; conditions: RT-112, 72 h
[45] = Toxicity in female nude mouse assessed as body weight at 500 mg/kg, po administered once and measured after 2 days of administration; format: organism-based; conditions: in vivo, 48 h, time 2 day
[46] = Toxicity in female nude mouse assessed as body weight at 100 mg/kg, po after 2 days of administration; format: organism-based; conditions: in vivo, 48 h, time 2 day
[47] = Toxicity in human JIMT-1 cells xenografted female nude mouse assessed as effect on body weight at 5 mg/kg, po administered every other day; format: organism-based; conditions: in vivo
[48] = test system: JIMT-1; assay: Induction of apoptosis in human JIMT-1 cells assessed as change in cleaved PARP levels and measured by Western blot analysis; format: functional, cell-based; conditions: dose 0.1-5 µM
[49] = test system: HCC1143; assay: Antiproliferative activity against human HCC1143 cells; format: functional, cell-based
[50] = test system: JIMT-1; assay: Antiproliferative activity against human JIMT-1 cells after 72 hrs by SRB assay; format: functional, cell-based; conditions: JIMT-1, 72 h
[51] = test system: JIMT-1; assay: Antitumor activity in human JIMT-1 cells xenografted female nude mouse at 5 mg/kg, po administered every other day; format: functional, organism-based
[52] = Toxicity in human JIMT-1 cells xenografted female immunodeficient nude mouse assessed as effect on body weight at 5 mg/kg, po administered every other day for 30 days; format: organism-based; conditions: in vivo, 720 h, time 30 day
[53] = Toxicity in mouse 4T1-Luc cells xenografted immunocompetent female mouse assessed as animal survival at 50 mg/kg, po administered every day; format: organism-based; conditions: in vivo
[54] = test system: JIMT-1; assay: Stabilization of human TACC3 expressed in JIMT-1 cells at 1 uM incubated for 6 hrs by cellular thermal shift assay; format: cell-based
[55] = Toxicity in human JIMT-1 cells xenografted female nude mouse assessed as effect on body weight at 2 mg/kg, po administered every other day; format: organism-based; conditions: in vivo
[56] = test system: JIMT-1; assay: Stabilization of human TACC3 expressed in JIMT-1 cells at 10 uM incubated for 20 mins and measured in presence of pronase by drug affinity responsive target stability assay; format: cell-based

Kd [5]: 0.0015 µM | solubility kinetic at 2 h [40]: < 1 µM | Activity [41]: 1.13%
Structure (SMILES): COc1ccc(-c2cc(Nc3ccnc(N4CCOCC4)n3)on2)cc1
Activity [1]: Non-Toxic | Activity [2]: Active | Activity [3]: Non-Toxic | Activity [4]: Active | Activity [6]: 17 g | Activity [7]: Active | Activity [8]: 17.4 g | Activity [9]: Active | IC50 [10]: 3.66 µM | MSD [11]: 22 days | Activity [12]: Non-Toxic | Activity [13]: Active | Activity [14]: Active | Activity [15]: 45.6% | Activity [16]: 16.5 g | Activity [17]: 16.3 g | Activity [18]: 16.7 g | Activity [19]: Active | Activity [20]: Active | IC50 [21]: > 10 µM | Activity [22]: Active | Activity [23]: 16.8 g | Activity [24]: Active | Activity [25]: Active | Activity [26]: 21.1 g | Activity [27]: Active | Activity [28]: 21.5 g | Activity [29]: Non-Toxic | Activity [30]: Dose-Dependent Effect | Activity [31]: Non-Toxic | Activity [32]: Non-Toxic | Activity [33]: Active | Activity [34]: Dose-Dependent Effect | Activity [35]: Dose-Dependent Effect | Activity [36]: Active | Activity [37]: Active | Activity [38]: Active | Activity [39]: Active | Activity [42]: Active | Activity [43]: Active | IC50 [44]: 0.3 µM | Activity [45]: 20.9 g | Activity [46]: 16.2 g | Activity [47]: Non-Toxic | Activity [48]: Dose-Dependent Effect | Activity [49]: Active | IC50 [50]: 0.12 µM | Activity [51]: Active | Activity [52]: Non-Toxic | MSD [53]: 28 days | Activity [54]: Active | Activity [55]: Non-Toxic | Activity [56]: Active
